Tested on: patients with prior myocardial infarction (CARE study)
Assay: CARE: association of SNPs with pravastatin treatment in cardiovascular events prevention (logistic regression, odds ratio pravastatin vs placebo by genotype; Table 8)
Assay type: in vivo, human
Settings: for Non-fatal MI (def & prob), n/total (%) / Fatal CHD/Definite Non-fatal MI, n/total (%) / Coronary Artery Bypass or Revascularization, n/total (%) / Hosp. for Unstable Angina, n/total (%) / Total Coronary Heart Disease Events, n/total (%) / Fatal/Non-fatal Atherosclerotic CV Disease, n/total (%) / Hosp. for Cardiovascular Disease, n/total (%) / Total Cardiovascular Disease Events, n/total (%) / Prava vs. Placebo Odds Ratio, 0 Rare Alleles / Prava vs. Placebo Odds Ratio, 1 Rare Alleles / Cardiovascular Mortality, n/total (%) / Fatal Atherosclerotic Cardiovascular Disease, n/total (%) / Fatal/Non-fatal MI (def & prob), n/total (%): All Patients; for Non-fatal MI (def & prob), n/total (%) / Fatal CHD/Definite Non-fatal MI, n/total (%) / Coronary Artery Bypass or Revascularization, n/total (%) / Hosp. for Unstable Angina, n/total (%) / Total Coronary Heart Disease Events, n/total (%) / Fatal/Non-fatal Atherosclerotic CV Disease, n/total (%) / Hosp. for Cardiovascular Disease, n/total (%) / Total Cardiovascular Disease Events, n/total (%) / Cardiovascular Mortality, n/total (%) / Fatal Atherosclerotic Cardiovascular Disease, n/total (%) / Fatal/Non-fatal MI (def & prob), n/total (%): Prava
Excerpt: In order to identify genetic markers associated with acute coronary events (e.g. MI, stroke, unstable angina, congestive heart failure, etc.) or response to statin treatment for the prevention of coronary events, samples from the Cholesterol and Recurrent Events (CARE) study (a randomized multicentral double-blinded trial on secondary prevention of acute coronary events with pravastatin) (Sacks et al., 1991, Am. J. Cardiol. 68: 1436-1446) were genotyped. A well-documented myocardial infarction (MI) was one of the enrollment criteria for entry into the CARE study. Patients were enrolled in the CARE trial from 80 participating study centers. […] Patients were randomized to receive either 40 mg of pravastatin once daily or a matching placebo. The primary endpoint of the trial was death from coronary heart disease and the median duration of follow-up was 5.0 years (range, 4.0 to 6.2 years). […] Secondary endpoints of other related cardiovascular or metabolic disease events, and changes in clinical variables were also recorded in pravastatin-treated and placebo groups. All individuals included in the study had signed a written informed consent form and the study protocol was approved by the respective Institutional Review Boards (IRBs).
For genotyping SNPs in CARE patient samples, DNA was extracted from blood samples using conventional DNA extraction methods such as the QIA-amp kit from Qiagen. Genotypes were obtained on an ABI PRISM® 7900HT Sequence Detection PCR system (Applied Biosystems, Foster City, Calif.) by kinetic allele-specific PCR, similar to the method described by Germer et al. (Germer S., Holland M. J., Higuchi R. 2000, Genome Res. 10: 258-266).
Statistical analysis for association of SNPs with pravastatin treatment in cardiovascular events prevention (Table 8) was carried out using an overall logistic regression model that included an intercept, a parameter for the effect of a genotype containing two rare alleles versus a genotype containing no rare alleles, a parameter for the effect of a genotype containing one rare allele versus a genotype containing no rare alleles, a parameter for the effect of use of pravastatin versus the use of placebo, and parameters for the interaction effects between SNP genotypes and pravastatin use. The test of the overall model is a chi-square test with two degrees of freedom for analyses containing all three genotypes, and one degree of freedom for analyses containing two genotypes.
Effect sizes were estimated through odds ratios (pravastatin group versus placebo) for carriers of each genotype (groups of 0, 1, and 2 minor allele carriers). The effect was considered to be significant if p-value for testing whether any of the interactions between SNP genotypes and pravastatin use were <0.05. […] Odds ratios less than one indicate that the specific SNP allele has a protective effect and odds ratios greater than one indicate that the specific SNP allele has an adverse effect.

[1] = CR1 hCV25598594, 2 Rare Alleles, n/total 0/0
[2] = CR1 hCV25598594, Coronary Artery Bypass or Revascularization
[3] = CR1 hCV25598594, Fatal CHD/Definite Non-fatal MI
[4] = CR1 hCV25598594, Fatal/Non-fatal Atherosclerotic CV Disease
[5] = CR1 hCV25598594, Hosp. for Cardiovascular Disease
[6] = CR1 hCV25598594, Hosp. for Unstable Angina
[7] = CR1 hCV25598594, Non-fatal MI (def & prob)
[8] = CR1 hCV25598594, Total Cardiovascular Disease Events
[9] = CR1 hCV25598594, Total Coronary Heart Disease Events
[10] = CXCL16 hCV8718197, 0 Rare Alleles, n/total 12/468

Structure (SMILES): CC[C@H](C)C(=O)O[C@H]1C[C@H](O)C=C2C=C[C@H](C)[C@H](CC[C@@H](O)C[C@@H](O)CC(=O)O)[C@H]21 [pravastatin]
- Nonfatal MI (def & prob), n/total (%) (COL11A1 hCV8400671, All Patients, 2 Rare Alleles, Prava arm): (4.1%)
- Non-fatal MI (def & prob), n/total (%) (CR1 hCV25598594, 0 Rare Alleles, n/total 132/1445): (9.1%)
- Fatal CHD/Definite Non-fatal MI, n/total (%) (CR1 hCV25598594, 0 Rare Alleles, n/total 139/1445): (9.6%)
- Coronary Artery Bypass or Revascularization, n/total (%) (CR1 hCV25598594, 0 Rare Alleles, n/total 212/1445): (14.7%)
- Hosp. for Unstable Angina, n/total (%) (CR1 hCV25598594, 0 Rare Alleles, n/total 223/1445): (15.4%)
- Total Coronary Heart Disease Events, n/total (%) (CR1 hCV25598594, 0 Rare Alleles, n/total 431/1445): (29.8%)
- Fatal/Non-fatal Atherosclerotic CV Disease, n/total (%) (CR1 hCV25598594, 0 Rare Alleles, n/total 491/1445): (34.0%)
- Hosp. for Cardiovascular Disease, n/total (%) (CR1 hCV25598594, 0 Rare Alleles, n/total 586/1445): (40.6%)
- Total Cardiovascular Disease Events, n/total (%) (CR1 hCV25598594, 0 Rare Alleles, n/total 603/1445): (41.7%)
- Fatal CHD/Definite Non-fatal MI, n/total (%) (CR1 hCV25598594, 1 Rare Allele, n/total 1/72): (1.4%)
- Non-fatal MI (def & prob), n/total (%) (CR1 hCV25598594, 1 Rare Allele, n/total 2/72): (2.8%)
- Coronary Artery Bypass or Revascularization, n/total (%) (CR1 hCV25598594, 1 Rare Allele, n/total 7/72): (9.7%)
- Hosp. for Unstable Angina, n/total (%) (CR1 hCV25598594, 1 Rare Allele, n/total 8/72): (11.1%)
- Total Coronary Heart Disease Events, n/total (%) (CR1 hCV25598594, 1 Rare Allele, n/total 11/72): (15.3%)
- Fatal/Non-fatal Atherosclerotic CV Disease, n/total (%) (CR1 hCV25598594, 1 Rare Allele, n/total 15/72): (20.8%)
- Hosp. for Cardiovascular Disease, n/total (%) (CR1 hCV25598594, 1 Rare Allele, n/total 23/72): (31.9%)
- Total Cardiovascular Disease Events, n/total (%) (CR1 hCV25598594, 1 Rare Allele, n/total 24/72): (33.3%)
- Coronary Artery Bypass or Revascularization, n/total (%) [1]: (0.0%)
- Fatal CHD/Definite Non-fatal MI, n/total (%) [1]: (0.0%)
- Fatal/Non-fatal Atherosclerotic CV Disease, n/total (%) [1]: (0.0%)
- Hosp. for Cardiovascular Disease, n/total (%) [1]: (0.0%)
- Hosp. for Unstable Angina, n/total (%) [1]: (0.0%)
- Non-fatal MI (def & prob), n/total (%) [1]: (0.0%)
- Total Cardiovascular Disease Events, n/total (%) [1]: (0.0%)
- Total Coronary Heart Disease Events, n/total (%) [1]: (0.0%)
- Prava vs. Placebo Odds Ratio, 0 Rare Alleles [2]: 0.74
- Prava vs. Placebo Odds Ratio, 1 Rare Alleles [2]: 0.23
- Prava vs. Placebo Odds Ratio, 0 Rare Alleles [3]: 0.76
- Prava vs. Placebo Odds Ratio, 1 Rare Alleles [3]: 0.06
- Prava vs. Placebo Odds Ratio, 0 Rare Alleles [4]: 0.81
- Prava vs. Placebo Odds Ratio, 1 Rare Alleles [4]: 0.25
- Prava vs. Placebo Odds Ratio, 0 Rare Alleles [5]: 0.79
- Prava vs. Placebo Odds Ratio, 1 Rare Alleles [5]: 0.33
- Prava vs. Placebo Odds Ratio, 0 Rare Alleles [6]: 0.87
- Prava vs. Placebo Odds Ratio, 1 Rare Alleles [6]: 0.31
- Prava vs. Placebo Odds Ratio, 0 Rare Alleles [7]: 0.74
- Prava vs. Placebo Odds Ratio, 1 Rare Alleles [7]: 0.12
- Prava vs. Placebo Odds Ratio, 0 Rare Alleles [8]: 0.78
- Prava vs. Placebo Odds Ratio, 1 Rare Alleles [8]: 0.33
- Prava vs. Placebo Odds Ratio, 0 Rare Alleles [9]: 0.81
- Prava vs. Placebo Odds Ratio, 1 Rare Alleles [9]: 0.22
- Cardiovascular Mortality, n/total (%) [10]: (2.6%)
- Fatal Atherosclerotic Cardiovascular Disease, n/total (%) [10]: (2.6%)
- Fatal/Non-fatal MI (def & prob), n/total (%) (CXCL16 hCV8718197, 0 Rare Alleles, n/total 33/468): (7.1%)
- Fatal CHD/Definite Non-fatal MI, n/total (%) (CXCL16 hCV8718197, 0 Rare Alleles, n/total 36/468): (7.7%)
- Coronary Artery Bypass or Revascularization, n/total (%) (CXCL16 hCV8718197, 0 Rare Alleles, n/total 56/468): (12.0%)
- Total Coronary Heart Disease Events, n/total (%) (CXCL16 hCV8718197, 0 Rare Alleles, n/total 125/468): (26.7%)
- Hosp. for Cardiovascular Disease, n/total (%) (CXCL16 hCV8718197, 0 Rare Alleles, n/total 177/468): (37.8%)
- Total Cardiovascular Disease Events, n/total (%) (CXCL16 hCV8718197, 0 Rare Alleles, n/total 180/468): (38.5%)
- Fatal Atherosclerotic Cardiovascular Disease, n/total (%) (CXCL16 hCV8718197, 1 Rare Allele, n/total 23/742): (3.1%)
- Cardiovascular Mortality, n/total (%) (CXCL16 hCV8718197, 1 Rare Allele, n/total 24/742): (3.2%)
- Fatal CHD/Definite Non-fatal MI, n/total (%) (CXCL16 hCV8718197, 1 Rare Allele, n/total 68/742): (9.2%)
- Fatal/Non-fatal MI (def & prob), n/total (%) (CXCL16 hCV8718197, 1 Rare Allele, n/total 75/742): (10.1%)
- Coronary Artery Bypass or Revascularization, n/total (%) (CXCL16 hCV8718197, 1 Rare Allele, n/total 119/742): (16.0%)
- Total Coronary Heart Disease Events, n/total (%) (CXCL16 hCV8718197, 1 Rare Allele, n/total 220/742): (29.6%)
- Hosp. for Cardiovascular Disease, n/total (%) (CXCL16 hCV8718197, 1 Rare Allele, n/total 305/742): (41.1%)
- Total Cardiovascular Disease Events, n/total (%) (CXCL16 hCV8718197, 1 Rare Allele, n/total 314/742): (42.3%)
- Cardiovascular Mortality, n/total (%) (CXCL16 hCV8718197, 2 Rare Alleles, n/total 19/292): (6.5%)
